Results taken from the supplement of paper PMC4314810.
± gives the standard deviation of the averaged measurements.

Tested on: MCF7
Experiment: HRG-induced Akt activation (dPAkt = log2 pAkt/Akt HRG-stimulated minus log2 pAkt/Akt basal) (log2 ratio difference); higher = stronger HRG-induced Akt(T308) phosphorylation
Settings: miRNA mimic concentration 10 nM; time after transfection 72 h; heregulin 10 ng/ml; stimulation time 1 h
Method in brief: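 Akt activation induced by heregulin was calculated as the difference between stimulated and unstimulated log ratios of phospho-Akt to total Akt, then averaged across replicates. The ratio was taken as log2(pAkt/Akt) from In-Cell Western readings of phospho-Akt(T308) and total Akt on an Odyssey, corrected for column-wise fixation decay. Before reading, MCF7 cells ([…], 96-well plates) transfected with 879 miRNA mimics at 10 nM final via Lipofectamine RNAiMax were, after 72 h, given 10 ng/ml heregulin-beta1 for 1 h or no stimulus, then fixed with 4% PFA. Two biological replicates were run.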

## UAAAGUGCUGACAGUGCAGAU
  HRG-induced Akt activation (log2): 1.52 ± 0.054

## UAAAGUGCUUAUAGUGCAGGUAG
  HRG-induced Akt activation (log2): 1.57 ± 0.035

## UAAAUCCCAUGGUGCCUUCUCCU
  HRG-induced Akt activation (log2): 2.03 ± 0.12

## UAAAUUUCACCUUUCUGAGAAGG
  HRG-induced Akt activation (log2): 1.46 ± 0.22

## UAACACUGUCUGGUAAAGAUGG
  HRG-induced Akt activation (log2): 0.763 ± 0.24

## UAACACUGUCUGGUAACGAUGU
  HRG-induced Akt activation (log2): 1.04 ± 0.078

## UAACAGUCUACAGCCAUGGUCG
  HRG-induced Akt activation (log2): 1.37 ± 0.26

## UAACAGUCUCCAGUCACGGCC
  HRG-induced Akt activation (log2): 1.5 ± 0.11

## UAACUGGUUGAACAACUGAACC
  HRG-induced Akt activation (log2): 1.93 ± 0.54

## UAAGGCACCCUUCUGAGUAGA
  HRG-induced Akt activation (log2): 1.51 ± 0.1

## UAAGGCACGCGGUGAAUGCC
  HRG-induced Akt activation (log2): 1.15 ± 0.41

## UAAGGUGCAUCUAGUGCAGAUAG
  HRG-induced Akt activation (log2): 2.27 ± 0.37

## UAAGGUGCAUCUAGUGCAGUUAG
  HRG-induced Akt activation (log2): 2.1 ± 0.024

## UAAGUGCUUCCAUGCUU
  HRG-induced Akt activation (log2): 0.459 ± 0.22

## UAAGUGCUUCCAUGUUUCAGUGG
  HRG-induced Akt activation (log2): 0.9677 ± 0.0067

## UAAGUGCUUCCAUGUUUGAGUGU
  HRG-induced Akt activation (log2): 1.17 ± 0.15

## UAAGUGCUUCCAUGUUUUAGUAG
  HRG-induced Akt activation (log2): 1.08 ± 0.1

## UAAGUGCUUCCAUGUUUUGGUGA
  HRG-induced Akt activation (log2): 0.743 ± 0.38

## UAAUACUGCCGGGUAAUGAUGGA
  HRG-induced Akt activation (log2): 1.08 ± 0.34

## UAAUACUGCCUGGUAAUGAUGA
  HRG-induced Akt activation (log2): 1.65 ± 0.49

## UAAUACUGUCUGGUAAAACCGU
  HRG-induced Akt activation (log2): 1.15 ± 0.17

## UAAUCCUUGCUACCUGGGUGAGA
  HRG-induced Akt activation (log2): 1.79 ± 0.047

## UAAUCUCAGCUGGCAACUGUGA
  HRG-induced Akt activation (log2): 1.38 ± 0.37

## UAAUGCCCCUAAAAAUCCUUAU
  HRG-induced Akt activation (log2): 0.932 ± 0.16

## UAAUUGCUUCCAUGUUU
  HRG-induced Akt activation (log2): 1.75 ± 0.088

## UAAUUUUAUGUAUAAGCUAGU
  HRG-induced Akt activation (log2): 1.79 ± 0.15

## UACAGUACUGUGAUAACUGAA
  HRG-induced Akt activation (log2): 1.57 ± 0.14

## UACAGUAUAGAUGAUGUACU
  HRG-induced Akt activation (log2): 1.39 ± 0.57

## UACCACAGGGUAGAACCACGG
  HRG-induced Akt activation (log2): 1.43 ± 0.074

## UACCCAGAGCAUGCAGUGUGAA
  HRG-induced Akt activation (log2): 1.78 ± 0.12

## UACCCAUUGCAUAUCGGAGUUG
  HRG-induced Akt activation (log2): 1.78 ± 0.071

## UACCCUGUAGAACCGAAUUUGUG
  HRG-induced Akt activation (log2): 1.99 ± 0.17

## UACCCUGUAGAUCCGAAUUUGUG
  HRG-induced Akt activation (log2): 1.47 ± 0.25

## UACGUAGAUAUAUAUGUAUUUU
  HRG-induced Akt activation (log2): 1.5 ± 0.16

## UACGUCAUCGUUGUCAUCGUCA
  HRG-induced Akt activation (log2): 1.21 ± 0.51

## UACUCAAAAAGCUGUCAGUCA
  HRG-induced Akt activation (log2): 1.02 ± 0.51

## UACUCAGGAGAGUGGCAAUCAC
  HRG-induced Akt activation (log2): 1.1 ± 0.15

## UACUCCAGAGGGCGUCACUCAUG
  HRG-induced Akt activation (log2): 1.02 ± 0.78

## UACUGCAGACAGUGGCAAUCA
  HRG-induced Akt activation (log2): 1.21 ± 0.45

## UACUGCAGACGUGGCAAUCAUG
  HRG-induced Akt activation (log2): 1 ± 0.63

## UACUGCAUCAGGAACUGAUUGGA
  HRG-induced Akt activation (log2): 0.878 ± 0.64

## UACUUGGAAAGGCAUCAGUUG
  HRG-induced Akt activation (log2): 1.28 ± 0.25

## UAGAGUUACACCCUGGGAGUUA
  HRG-induced Akt activation (log2): 1.66 ± 0.19

## UAGAUAAAAUAUUGGUACCUG
  HRG-induced Akt activation (log2): 1.34 ± 0.55

## UAGCAAAAACUGCAGUUACUUU
  HRG-induced Akt activation (log2): 1.86 ± 0.15

## UAGCACCAUCUGAAAUCGGUUA
  HRG-induced Akt activation (log2): 1.24 ± 0.077

## UAGCACCAUUUGAAAUCAGUGUU
  HRG-induced Akt activation (log2): 1.47 ± 0.15

## UAGCACCAUUUGAAAUCGGUUA
  HRG-induced Akt activation (log2): 1.17 ± 0.57

## UAGCAGCACAGAAAUAUUGGC
  HRG-induced Akt activation (log2): 1.42 ± 0.76

## UAGCAGCACAUAAUGGUUUGUG
  HRG-induced Akt activation (log2): 1.98 ± 0.18

## UAGCAGCACAUCAUGGUUUACA
  HRG-induced Akt activation (log2): 1.59 ± 0.025

## UAGCAGCACGUAAAUAUUGGCG
  HRG-induced Akt activation (log2): 2.03 ± 0.15

## UAGCAGCGGGAACAGUUCUGCAG
  HRG-induced Akt activation (log2): 1.61 ± 0.1

## UAGCUUAUCAGACUGAUGUUGA
  HRG-induced Akt activation (log2): 1.73 ± 0.11

## UAGGACACAUGGUCUACUUCU
  HRG-induced Akt activation (log2): 1.04 ± 0.19

## UAGGCAGUGUCAUUAGCUGAUUG
  HRG-induced Akt activation (log2): 1.69 ± 0.15

## UAGGUAGUUUCAUGUUGUUGGG
  HRG-induced Akt activation (log2): 1.86 ± 0.1

## UAGGUAGUUUCCUGUUGUUGGG
  HRG-induced Akt activation (log2): 2.19 ± 0.23

## UAGGUUAUCCGUGUUGCCUUCG
  HRG-induced Akt activation (log2): 1.17 ± 0.16

## UAGUACCAGUACCUUGUGUUCA
  HRG-induced Akt activation (log2): 1.19 ± 0.3

## UAGUACUGUGCAUAUCAUCUAU
  HRG-induced Akt activation (log2): 1.44 ± 0.47

## UAGUAGACCGUAUAGCGUACG
  HRG-induced Akt activation (log2): 1.5 ± 0.21

## UAGUGCAAUAUUGCUUAUAGGGU
  HRG-induced Akt activation (log2): 0.808 ± 0.069

## UAUACAAGGGCAAGCUCUCUGU
  HRG-induced Akt activation (log2): 1.05 ± 0.18

## UAUACAAGGGCAGACUCUCUCU
  HRG-induced Akt activation (log2): 1.48 ± 0.24

## UAUACCUCAGUUUUAUCAGGUG
  HRG-induced Akt activation (log2): 1.94 ± 0.15

## UAUAGGGAUUGGAGCCGUGGCG
  HRG-induced Akt activation (log2): 1.04 ± 0.064

## UAUGCAUUGUAUUUUUAGGUCC
  HRG-induced Akt activation (log2): 1.1 ± 0.81

## UAUGGCACUGGUAGAAUUCACU
  HRG-induced Akt activation (log2): 1.65 ± 0.3

## UAUGGCUUUUCAUUCCUAUGUGA
  HRG-induced Akt activation (log2): 1.12 ± 0.29

## UAUGGCUUUUUAUUCCUAUGUGA
  HRG-induced Akt activation (log2): 1.27 ± 0.27

## UAUGUAACACGGUCCACUAACC
  HRG-induced Akt activation (log2): 1.73 ± 0.081

## UAUGUAACAUGGUCCACUAACU
  HRG-induced Akt activation (log2): 1.97 ± 0.17

## UAUGUAAUAUGGUCCACAUCUU
  HRG-induced Akt activation (log2): 2.01 ± 0.2

## UAUGUCUGCUGACCAUCACCUU
  HRG-induced Akt activation (log2): 2.316 ± 0.0055

## UAUGUGCCUUUGGACUACAUCG
  HRG-induced Akt activation (log2): 1.56 ± 0.13

## UAUGUGGGAUGGUAAACCGCUU
  HRG-induced Akt activation (log2): 2.19 ± 0.34

## UAUUCAUUUAUCCCCAGCCUACA
  HRG-induced Akt activation (log2): 1.59 ± 0.22

## UAUUGCACAUUACUAAGUUGCA
  HRG-induced Akt activation (log2): 1.07 ± 0.077

## UAUUGCACUCGUCCCGGCCUCC
  HRG-induced Akt activation (log2): 1.33 ± 0.043

## UAUUGCACUUGUCCCGGCCUGU
  HRG-induced Akt activation (log2): 1.3 ± 0.12

## UCAAAACUGAGGGGCAUUUUCU
  HRG-induced Akt activation (log2): 1.34 ± 0.13

## UCAAAUGCUCAGACUCCUGUGGU
  HRG-induced Akt activation (log2): 1.63 ± 0.19

## UCAAGAGCAAUAACGAAAAAUGU
  HRG-induced Akt activation (log2): 1.91 ± 0.14

## UCACAAGUCAGGCUCUUGGGAC
  HRG-induced Akt activation (log2): 1.27 ± 0.15

## UCACAAUGCUGACACUCAAACUGCUGAC
  HRG-induced Akt activation (log2): 1.45 ± 0.48

## UCACACCUGCCUCGCCCCCC
  HRG-induced Akt activation (log2): 1.05 ± 0.31

## UCACAGUGAACCGGUCUCUUU
  HRG-induced Akt activation (log2): 1.04 ± 0.063

## UCACCAGCCCUGUGUUCCCUAG
  HRG-induced Akt activation (log2): 1.69 ± 0.061

## UCACUCCUCUCCUCCCGUCUU
  HRG-induced Akt activation (log2): 1.4 ± 0.36

## UCACUGUUCAGACAGGCGGA
  HRG-induced Akt activation (log2): 2.02 ± 0.07

## UCAGAACAAAUGCCGGUUCCCAGA
  HRG-induced Akt activation (log2): 1.23 ± 0.54

## UCAGCAAACAUUUAUUGUGUGC
  HRG-induced Akt activation (log2): 1.819 ± 0.011

## UCAGCUGGCCCUCAUUUC
  HRG-induced Akt activation (log2): 1.12 ± 0.66

## UCAGGCCAGGCACAGUGGCUCA
  HRG-induced Akt activation (log2): 1.57 ± 0.41

## UCAGGCUCAGUCCCCUCCCGAU
  HRG-induced Akt activation (log2): 1.36 ± 0.046

## UCAGUAAAUGUUUAUUAGAUGA
  HRG-induced Akt activation (log2): 1.671 ± 0.0072

## UCAGUGCACUACAGAACUUUGU
  HRG-induced Akt activation (log2): 0.519 ± 0.1

## UCAGUGCAUCACAGAACUUUGU
  HRG-induced Akt activation (log2): 0.53 ± 0.045

## UCAGUGCAUGACAGAACUUGG
  HRG-induced Akt activation (log2): 1.09 ± 0.14

## UCAUAGCCCUGUACAAUGCUGCU
  HRG-induced Akt activation (log2): 1.697 ± 0.0055

## UCAUAUUGCUUCUUUCU
  HRG-induced Akt activation (log2): 1.79 ± 0.17

## UCCAGCAUCAGUGAUUUUGUUG
  HRG-induced Akt activation (log2): 1.77 ± 0.17

## UCCAGUACCACGUGUCAGGGCCA
  HRG-induced Akt activation (log2): 0.976 ± 0.31

## UCCAGUGCCCUCCUCUCC
  HRG-induced Akt activation (log2): 1.131 ± 0.0093

## UCCAUUACACUACCCUGCCUCU
  HRG-induced Akt activation (log2): 1.37 ± 0.17

## UCCCACCGCUGCCACCC
  HRG-induced Akt activation (log2): 1.98 ± 0.17

## UCCCACGUUGUGGCCCAGCAG
  HRG-induced Akt activation (log2): 1.44 ± 0.14

## UCCCCCAGGUGUGAUUCUGAUUU
  HRG-induced Akt activation (log2): 1.14 ± 0.29

## UCCCUGAGACCCUAACUUGUGA
  HRG-induced Akt activation (log2): 1.35 ± 0.79

## UCCCUGAGACCCUUUAACCUGUGA
  HRG-induced Akt activation (log2): 1.77 ± 0.13

## UCCCUGUCCUCCAGGAGCUCACG
  HRG-induced Akt activation (log2): 1.79 ± 0.13

## UCCCUGUUCGGGCGCCA
  HRG-induced Akt activation (log2): 1.65 ± 0.52

## UCCGAGCCUGGGUCUCCCUCUU
  HRG-induced Akt activation (log2): 1.37 ± 0.23

## UCCGGUUCUCAGGGCUCCACC
  HRG-induced Akt activation (log2): 1.83 ± 0.26

## UCCGUCUCAGUUACUUUAUAGC
  HRG-induced Akt activation (log2): 1.63 ± 0.18

## UCCUCUUCUCCCUCCUCCCAG
  HRG-induced Akt activation (log2): 1.77 ± 0.039
